Literature values, collected in US9418186B2, “Assessment of solute partitioning in crude oils” (EXXONMOBIL RESEARCH AND ENGINEERING COMPANY, priority 2012, dated 2016).
Several values for one entry are separate records, joined by “and”; a condition that tells them apart may be missing. Equal entries are not always repeated. Where two headings read alike, the source gives them in different places.

Key:
[1] = North Sea crude oil / water
[2] = chloroform / water
[3] = not given; remark: listed apart in the source
[4] = Miller (North Sea) crude oil / water

Structure (SMILES)	literature value for the partition coefficient in octanol-water	log K in octanol-water (literature)	experimental partition coefficient [1]	experimental value for the log of the partition coefficient [1]	experimental partition coefficient [2]	experimental value for the log of the partition coefficient [2]	solubility in water [3] [gmol/m^3]	experimental partition coefficient [4]	experimental value for the log of the partition coefficient [4]
S [H2S]	27.5	1.44	4.09	0.612	–	–	–	–	–
O=C1CCCCCN1 [caprolactam]	–	–	–	–	0.74	−0.131	40353	–	–
Oc1ccccc1 [phenol]	28.8	1.45	–	–	0.74	−0.13	–	1.72	0.238 and 0.24
